Reference: US8546389B2 (priority 2010, dated 2013)
Where two headings read alike, the source gives them in different places.

How the values were obtained:
[1] = system: genotype 1b (Con 1) subgenomic replicon cell line; assay: HCV replicon assay, genotype 1b (Renilla luciferase); type: cell-based, HCV genotype 1b (Con 1); conditions: genotype 1b replicon
Outline: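 Subgenomic replicon cells expressing Renilla luciferase (1b Con1; 1a and 2a lines by the same method) seeded at 7000 cells/well (5000 for 2a) without G418, exposed to 3-fold compound dilutions for 72 h at 37 °C. Luciferase activity measured; EC50 by non-linear regression.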

[2] = system: subgenomic genotype 1a replicon cell line; assay: HCV replicon assay, genotype 1a; type: cell-based, HCV genotype 1a
Description: (§1) A genotype 1b (Con 1) subgenomic replicon cell line based on Blight et al., Science 2000 290: 1972-1974, modified to express a Renilla luciferase reporter gene was used to assess antiviral activity of test compounds. Cell cultures were maintained in a sub-confluent state in DMEM with glutamine, 10% heat-inactivated foetal bovine serum (FBS) and G418 (Geneticin®).
(§2) For assay, cells were seeded at a density of 7000 cells/well into 96 well tissue culture trays in culture media lacking G418. Compounds were tested in a three fold dilution series, for example starting from 50 uM. After 72 hours incubation at 37° C. and 5% CO2, Renilla luciferase activity was quantified via the Promega Renilla Luciferase or Renilla-Glo™ Luciferase Assay Systems (Promega corporation. The same method was employed for replicon assays using subgenomic genotype 1a and 2a replicon cell lines with a seeding cell density of 5000 cells/well for the 2a cell lines.
(§3) The compound concentration that reduced luciferase activity by 50% (EC50) was calculated using non-linear regression.

[3] = molecular target: genotype 3a (VRL-69) NS5bΔ21 polymerase (Hepatitis C virus genotype 3a, UniProt Q81258); assay: HCV polymerase inhibition assay, genotype 3a; type: biochemical, HCV genotype 3a (VRL-69); conditions: genotype 3a; read-out: 3a NS5b polymerase IC50
Description: HCV polymerase reactions were carried out using a modified method of Howe et al., Antimicrobial Agents and Chemotherapy 2004 48(12): 4813-4821. Reactions contained a final concentration of, 0.5% DMSO, 50 nM, 1b (BK) NS5bΔ21, 20 mM Tris-HCl pH 7.5, 5 mM MgCl2, 5 mM MnCl2, 3 mM DTT, 0.05% BSA, 0.2 U/μL RNasin, 10 μg/mL Poly(rC) template, GTP (at Km) and 0.05 μCi/μL ^33P-GTP in a total reaction volume of 50 μL. Compounds were tested in a three fold dilution series, for example starting from 50 μM. Reactions were initiated with the addition of GTP and terminated after 1 hour with 50 μL ice cold 0.2 M EDTA. Terminated reactions were transferred to DEAE 96-well filter plates, unincorporated nucleotides washed from the filters and 50 μL scintillation fluid added prior to reading on a scintillation counter. Similarly, a genotype 3a (VRL-69) NS5bΔ21 polymerase enzyme assay was conducted using essentially the same method.
The compound concentration that reduced ^33P-GTP incorporation by 50% (IC50) was calculated using non-linear regression.

[4] = system: subgenomic genotype 2a replicon cell line; assay: HCV replicon assay, genotype 2a; type: cell-based, HCV genotype 2a
Description: as §1, §2, §3

1b (BK) NS5bΔ21 = 1b (BK) NS5bΔ21 (Hepatitis C virus genotype 1b (isolate BK) (HCV), UniProt P26663); assay: HCV polymerase inhibition assay, genotype 1b; type: biochemical, HCV genotype 1b (BK)
Outline: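 NS5bΔ21 (50 nM) in Tris-HCl pH 7.5 with Mg2+/Mn2+, DTT, BSA, 0.5% DMSO, poly(rC) template, GTP at Km and ^33P-GTP; 3-fold compound dilutions. GTP-started reactions stopped with EDTA after 1 h; incorporation read by DEAE filter scintillation counting. IC50 by non-linear regression; 3a enzyme run the same way.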

[5] = Hepatitis C virus, 72 hours, luciferase, read-out: genotype 1b EC50 (range class)
[6] = Hepatitis C virus, read-out: Replicon 1b EC50
[7] = 1b (BK) NS5bΔ21, 33P-GTP incorporation, read-out: 1b polymerase IC50 (range class)
[8] = genotype 1b, read-out: 1b NS5b polymerase IC50

1b (BK) NS5bΔ21, sequence (P26663 2420-2989): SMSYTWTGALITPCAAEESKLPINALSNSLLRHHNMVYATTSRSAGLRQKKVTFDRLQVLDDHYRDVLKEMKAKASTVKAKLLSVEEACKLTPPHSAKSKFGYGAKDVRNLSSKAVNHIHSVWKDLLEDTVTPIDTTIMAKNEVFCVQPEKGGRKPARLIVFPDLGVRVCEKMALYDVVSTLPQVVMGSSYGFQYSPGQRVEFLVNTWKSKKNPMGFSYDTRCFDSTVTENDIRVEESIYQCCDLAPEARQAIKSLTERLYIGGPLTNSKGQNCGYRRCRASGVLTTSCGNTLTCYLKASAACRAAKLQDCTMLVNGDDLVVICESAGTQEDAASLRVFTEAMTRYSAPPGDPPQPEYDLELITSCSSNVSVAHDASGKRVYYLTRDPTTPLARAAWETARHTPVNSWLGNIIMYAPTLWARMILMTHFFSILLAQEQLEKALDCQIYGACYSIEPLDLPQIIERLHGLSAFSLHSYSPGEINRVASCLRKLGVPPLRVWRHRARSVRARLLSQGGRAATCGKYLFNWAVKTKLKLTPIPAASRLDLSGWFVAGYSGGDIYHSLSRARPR
genotype 3a (VRL-69) NS5bΔ21 polymerase, sequence (Q81258 whole entry, looked up, stated change not applied): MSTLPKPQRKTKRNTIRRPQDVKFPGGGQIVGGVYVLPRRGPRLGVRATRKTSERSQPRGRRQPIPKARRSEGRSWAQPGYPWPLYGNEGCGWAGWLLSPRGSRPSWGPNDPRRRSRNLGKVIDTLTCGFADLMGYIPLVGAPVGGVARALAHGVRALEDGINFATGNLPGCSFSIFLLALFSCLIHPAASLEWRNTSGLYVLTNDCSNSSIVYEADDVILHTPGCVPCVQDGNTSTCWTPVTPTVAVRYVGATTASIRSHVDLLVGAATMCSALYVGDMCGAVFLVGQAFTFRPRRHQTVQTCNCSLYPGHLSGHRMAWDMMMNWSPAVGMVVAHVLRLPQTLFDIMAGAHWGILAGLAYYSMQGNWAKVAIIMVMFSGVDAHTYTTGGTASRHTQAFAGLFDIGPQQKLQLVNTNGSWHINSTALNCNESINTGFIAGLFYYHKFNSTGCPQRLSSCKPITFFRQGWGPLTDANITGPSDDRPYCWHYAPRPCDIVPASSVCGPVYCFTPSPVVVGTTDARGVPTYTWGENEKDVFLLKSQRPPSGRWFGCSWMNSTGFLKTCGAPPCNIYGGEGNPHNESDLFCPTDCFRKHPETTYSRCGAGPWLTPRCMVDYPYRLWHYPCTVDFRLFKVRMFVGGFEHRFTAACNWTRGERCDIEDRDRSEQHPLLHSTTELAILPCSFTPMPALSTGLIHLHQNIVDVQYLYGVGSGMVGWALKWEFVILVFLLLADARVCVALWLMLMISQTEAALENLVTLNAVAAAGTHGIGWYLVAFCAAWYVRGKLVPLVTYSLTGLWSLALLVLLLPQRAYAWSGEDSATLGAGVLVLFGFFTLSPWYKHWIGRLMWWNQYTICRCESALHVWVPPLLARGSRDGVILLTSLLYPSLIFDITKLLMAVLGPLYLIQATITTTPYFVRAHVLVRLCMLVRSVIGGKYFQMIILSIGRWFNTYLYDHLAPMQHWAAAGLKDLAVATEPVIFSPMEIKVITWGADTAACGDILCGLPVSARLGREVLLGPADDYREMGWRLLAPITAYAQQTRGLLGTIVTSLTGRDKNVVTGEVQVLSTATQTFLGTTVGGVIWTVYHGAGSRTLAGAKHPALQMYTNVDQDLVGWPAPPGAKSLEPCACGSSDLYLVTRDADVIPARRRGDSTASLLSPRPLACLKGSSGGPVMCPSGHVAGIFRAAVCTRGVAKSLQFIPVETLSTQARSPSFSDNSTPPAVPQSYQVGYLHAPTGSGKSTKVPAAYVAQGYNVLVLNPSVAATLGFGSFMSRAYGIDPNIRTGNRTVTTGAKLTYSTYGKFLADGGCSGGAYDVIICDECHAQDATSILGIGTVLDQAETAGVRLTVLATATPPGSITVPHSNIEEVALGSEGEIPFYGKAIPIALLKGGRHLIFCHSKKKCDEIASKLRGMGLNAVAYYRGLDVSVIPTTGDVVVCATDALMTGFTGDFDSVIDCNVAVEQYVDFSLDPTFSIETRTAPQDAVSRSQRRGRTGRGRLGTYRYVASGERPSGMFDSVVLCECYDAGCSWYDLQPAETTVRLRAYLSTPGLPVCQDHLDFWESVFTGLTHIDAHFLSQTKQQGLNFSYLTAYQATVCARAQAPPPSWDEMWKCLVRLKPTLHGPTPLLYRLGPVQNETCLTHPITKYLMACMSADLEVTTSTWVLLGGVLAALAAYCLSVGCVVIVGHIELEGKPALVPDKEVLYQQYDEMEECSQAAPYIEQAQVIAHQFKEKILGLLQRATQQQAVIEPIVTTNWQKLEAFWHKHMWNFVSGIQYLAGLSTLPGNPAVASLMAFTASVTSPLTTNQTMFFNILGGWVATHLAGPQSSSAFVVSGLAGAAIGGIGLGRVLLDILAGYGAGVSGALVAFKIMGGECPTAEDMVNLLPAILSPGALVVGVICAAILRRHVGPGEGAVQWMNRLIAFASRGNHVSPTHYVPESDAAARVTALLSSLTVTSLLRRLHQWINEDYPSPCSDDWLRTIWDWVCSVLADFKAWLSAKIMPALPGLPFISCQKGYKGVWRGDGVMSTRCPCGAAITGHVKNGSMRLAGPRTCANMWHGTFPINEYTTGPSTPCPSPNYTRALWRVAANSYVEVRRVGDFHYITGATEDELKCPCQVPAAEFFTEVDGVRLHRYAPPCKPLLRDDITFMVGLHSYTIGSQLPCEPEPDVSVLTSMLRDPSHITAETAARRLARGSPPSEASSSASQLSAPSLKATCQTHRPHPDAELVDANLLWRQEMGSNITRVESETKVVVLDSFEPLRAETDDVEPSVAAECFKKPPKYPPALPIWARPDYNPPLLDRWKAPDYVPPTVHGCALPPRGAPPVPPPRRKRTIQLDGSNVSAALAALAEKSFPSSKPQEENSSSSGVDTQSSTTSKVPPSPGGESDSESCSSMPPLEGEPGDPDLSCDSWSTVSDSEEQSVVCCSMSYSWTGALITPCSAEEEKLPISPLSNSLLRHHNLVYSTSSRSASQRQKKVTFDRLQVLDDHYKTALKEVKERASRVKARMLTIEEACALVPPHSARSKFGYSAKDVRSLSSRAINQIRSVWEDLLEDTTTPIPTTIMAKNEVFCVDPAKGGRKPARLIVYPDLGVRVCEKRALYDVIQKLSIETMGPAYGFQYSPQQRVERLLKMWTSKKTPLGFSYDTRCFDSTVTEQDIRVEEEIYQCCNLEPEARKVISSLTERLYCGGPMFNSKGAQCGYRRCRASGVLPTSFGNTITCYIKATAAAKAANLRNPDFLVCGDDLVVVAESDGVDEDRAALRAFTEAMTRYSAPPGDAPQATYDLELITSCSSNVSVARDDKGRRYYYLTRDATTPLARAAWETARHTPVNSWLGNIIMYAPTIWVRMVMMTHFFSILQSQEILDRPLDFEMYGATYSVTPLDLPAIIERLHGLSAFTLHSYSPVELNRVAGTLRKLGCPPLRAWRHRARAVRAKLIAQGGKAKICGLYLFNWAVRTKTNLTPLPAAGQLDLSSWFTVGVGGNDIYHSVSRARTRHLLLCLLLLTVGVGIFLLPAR

Row | SMILES | EC50 [1, 5] [nM] | IC50 (1b (BK) NS5bΔ21; [7]) [nM] | further results
1 | CNC(=O)c1c2cc(C3CC3)c(N(CCCNC(=O)C(F)(F)F)S(C)(=O)=O)cc2nn1-c1ccc(Br)cc1 [Compound 172] | < 990 | < 990 | EC50 [1, 6]: 60 nM; EC50 ([2]; Hepatitis C virus): 60 nM; IC50 [3]: 40 nM; EC50 ([4]; Hepatitis C virus): 1830 nM; IC50 (1b (BK) NS5bΔ21; [8]): 110 nM
2 | CCCC(=O)NCCCN(c1cc2nn(-c3ccc(Br)cc3)c(C(=O)NC)c2cc1C1CC1)S(C)(=O)=O [Compound 171] | < 990 | < 990 | EC50 [1, 6]: 210 nM; EC50 ([2]; Hepatitis C virus): 280 nM; IC50 [3]: 40 nM; EC50 ([4]; Hepatitis C virus): 4260 nM; IC50 (1b (BK) NS5bΔ21; [8]): 310 nM
3 | CNC(=O)c1c2cc(C3CC3)c(N(C)S(C)(=O)=O)cc2nn1-c1ccc(Br)cc1 [Compound 234] | < 990 | < 990 | EC50 [1, 6]: 80 nM; EC50 ([2]; Hepatitis C virus): 240 nM; IC50 [3]: 20 nM; EC50 ([4]; Hepatitis C virus): 420 nM; IC50 (1b (BK) NS5bΔ21; [8]): 140 nM
4 | C=CCN(c1cc2nn(-c3ccc(Br)cc3)c(C(=O)NC)c2cc1C1CC1)S(C)(=O)=O [Compound 98] |  |  | EC50 ([1]; read-out: Replicon 1b EC50): 80 nM; EC50 [2]: 160 nM; IC50 [3]: 30 nM; EC50 [4]: 460 nM; IC50 (1b (BK) NS5bΔ21; [8]): 100 nM
5 | CNC(=O)c1c2cc(C3CC3)c(N(CCCNC(=O)c3cccnc3OC)S(C)(=O)=O)cc2nn1-c1ccc(Br)cc1 [Compound 190] | < 990 | < 990 | EC50 [1, 6]: 70 nM; EC50 ([2]; Hepatitis C virus): 90 nM; IC50 [3]: 40 nM; EC50 ([4]; Hepatitis C virus): 430 nM; IC50 (1b (BK) NS5bΔ21; [8]): 830 nM
6 | CNC(=O)c1c2cc(C3CC3)c(N(CCCNC(=O)c3nonc3C)S(C)(=O)=O)cc2nn1-c1ccc(Br)cc1 [Compound 179] | < 990 | < 990 | EC50 [1, 6]: 70 nM; EC50 ([2]; Hepatitis C virus): 180 nM; IC50 [3]: 30 nM; EC50 ([4]; Hepatitis C virus): 520 nM; IC50 (1b (BK) NS5bΔ21; [8]): 260 nM
7 | CNC(=O)c1c2cc(C3CC3)c(N(CCCNS(C)(=O)=O)S(C)(=O)=O)cc2nn1-c1ccc(Br)cc1 [Compound 134] | < 990 | < 990 | EC50 [1, 6]: 110 nM; EC50 ([2]; Hepatitis C virus): 540 nM; IC50 [3]: 30 nM; EC50 ([4]; Hepatitis C virus): 5020 nM; IC50 (1b (BK) NS5bΔ21; [8]): 90 nM
8 | CNC(=O)c1c2cc(C3CC3)c(N(CCCNC(=O)c3ncoc3C)S(C)(=O)=O)cc2nn1-c1ccc(Br)cc1 [Compound 174] | < 990 | < 990 | EC50 [1, 6]: 110 nM; EC50 ([2]; Hepatitis C virus): 60 nM; EC50 ([4]; Hepatitis C virus): 1730 nM
9 | CNC(=O)c1c2cc(C3CC3)c(N(C3CCN(S(C)(=O)=O)CC3)S(C)(=O)=O)cc2nn1-c1ccc(Br)cc1 [Compound 108, 2-(4-bromophenyl)-5-cyclopropyl-N-methyl-6-[methylsulfonyl-(1-methylsulfonyl(piperidin-4-yl))amino]-2H-indazole-3-carboxamide] | 1000 to 9990 | < 990 | 
10 | CNC(=O)c1c2cc(C3CC3)c(N(CCCNC(=O)CN)S(C)(=O)=O)cc2nn1-c1ccc(Br)cc1 [Compound 133] | 1000 to 9990 | < 990 | 
11 | CNC(=O)c1c2cc(C3CC3)c(N(CCO)S(C)(=O)=O)cc2nn1-c1ccc(Oc2ccccc2)cc1 [Compound 35] | < 990 | 1000 to 9990 | 
12 | CNC(=O)c1c2cc(C3CC3)c(N(CCCO)S(C)(=O)=O)cc2nn1-c1ccc(Oc2ccc(F)cc2)cc1 [Compound 30] | < 990 | < 990 | 
13 | CNC(=O)c1c2cc(C3CC3)c(NS(C)(=O)=O)cc2nn1-c1ccc(Br)cc1 [Compound 1, 2-(4-bromophenyl)-5-cyclopropyl-N-methyl-6-[(methylsulfonyl)amino]-2H-indazole-3-carboxamide] | 1000 to 9990 | 10000 to 50000 | 
14 | CNC(=O)c1c2cc(C3CC3)c(N(CCCNC(=O)CCOC)S(C)(=O)=O)cc2nn1-c1ccc(Br)cc1 [Compound 161] | < 990 | < 990 | 
15 | CNC(=O)c1c2cc(C3CC3)c(N(CCCC(=O)NS(=O)(=O)N(C)C)S(C)(=O)=O)cc2nn1-c1ccc(Br)cc1 [Compound 198] | 1000 to 9990 | < 990 | 
16 | CNC(=O)c1c2cc(C3CC3)c(N(CCC(=O)O)S(C)(=O)=O)cc2nn1-c1ccc(Br)cc1 [Compound 90, N-[2-(4-bromophenyl)-5-cyclopropyl-3-(methylcarbamoyl)-2H-indazol-6-yl]-N-(methylsulfonyl)-beta-alanine] | 10000 to 50000 | < 990 | 
17 | CNC(=O)c1c2cc(C3CC3)c(N(CCCNC(=O)C3COCCN3C)S(C)(=O)=O)cc2nn1-c1ccc(Br)cc1 (centres unmarked) [Compound 64, 2-(4-Bromophenyl)-5-cyclopropyl-N-methyl-6-{[3-({[4-methylmorpholin-3-yl]carbonyl}amino)propyl](methylsulfonyl)amino}-2H-indazole-3-carboxamide] | < 990 | < 990 | 
18 | CCN(c1cc2nn(-c3ccc(F)cc3)c(C(=O)NC)c2cc1C1=CCCC1)S(C)(=O)=O [Compound 73, 5-(Cyclopent-1-en-1-yl)-6-[ethyl(methylsulfonyl)amino]-2-(4-fluorophenyl)-N-methyl-2H-indazole-3-carboxamide] | 1000 to 9990 | 10000 to 50000 | 
19 | CNC(=O)c1c2cc(C3CC3)c(N(CCCNC(=O)c3ccccc3)S(C)(=O)=O)cc2nn1-c1ccc(Cl)cc1 [Compound 197] | < 990 | < 990 | 
20 | CCN(c1cc2nn(-c3ccc(F)cc3)c(C(=O)NC)c2cc1Br)S(C)(=O)=O [Compound 132] | 10000 to 50000 | 1000 to 9990 | 
21 | CNC(=O)c1c2cc(C3CC3)c(N(CCO)S(C)(=O)=O)cc2nn1-c1ccc(F)cc1 [Compound 14, 5-cyclopropyl-2-(4-fluorophenyl)-6-[(2-hydroxyethyl)(methylsulfonyl)amino]-N-methyl-2H-indazole-3-carboxamide] | 1000 to 9990 | 10000 to 50000 | 
22 | CCN(c1cc2nn(-c3ccc(NC(C)C)cc3)c(C(=O)NC)c2cc1C1CC1)S(C)(=O)=O [Compound 38] | < 990 | 1000 to 9990 | 
23 | CNC(=O)c1c2cc(C3CC3)c(N(CCC(CO)CO)S(C)(=O)=O)cc2nn1-c1ccc(Cl)cc1 [Compound 238] | 1000 to 9990 | < 990 | 
24 | CNC(=O)c1c2cc(C3CC3)c(N(CCCNC(=O)[C@H]3CCC[C@H]3C(=O)OC)S(C)(=O)=O)cc2nn1-c1ccc(Br)cc1 [Compound 215] | < 990 | < 990 | 
25 | CNC(=O)c1c2cc(C3CC3)c(N(CC3COC(C)(C)OC3)S(C)(=O)=O)cc2nn1-c1ccc(Br)cc1 [Compound 202] | < 990 | < 990 | 
